target: human RORγ ligand binding domain (GST-hRORγ-LBD) (Homo sapiens (Human), UniProt P51449); test: TR-FRET assay (biochemical cofactor interaction assay, GST-hRORγ-LBD / TRAP220 peptide)
From the text: RORγ is an orphan member of the nuclear receptor (NR) family displaying constitutive activity. The activity of nuclear receptors can be modulated by ligand-induced cofactor protein interactions. For example, agonist binding leads to recruitment of coactivator protein, and antagonist binding either blocks coactivator interaction or facilitates the recruitment of corepressors. […] The conformational change induced by ligand binding influences interactions with LXXLL motif peptides.
RORγ (t) is a thymus-specific isoform of RORγ which is widely expressed. It shares the same ligand binding domain (LBD) sequence with RORγ. Thus, a screen using the LBD will yield antagonists targeting both RORγ and RORγt.
In order to identify compounds which block activity of the human nuclear receptor Retinoid-related Orphan Receptor gamma (RORγ) a biochemical cofactor interaction assay based on the TR-FRET principle is performed. […] The ligand-binding domain (LBD) of RORγ is expressed as fusion protein with GST in […] cells using the vector pDEST15. Cells are lysed by lysozyme-treatment and sonication, and the fusion proteins purified over glutathione sepharose (Pharmacia) according to the manufacturers instructions. The strong constitutive interaction is disrupted upon binding of functional antagonists. The strength of the interaction is monitored by TR-FRET between streptavidine APC interacting with the biotinylated peptide and Europium-labelled Anti-GST.

Chain of human RORγ ligand binding domain (GST-hRORγ-LBD) (P51449 269-508): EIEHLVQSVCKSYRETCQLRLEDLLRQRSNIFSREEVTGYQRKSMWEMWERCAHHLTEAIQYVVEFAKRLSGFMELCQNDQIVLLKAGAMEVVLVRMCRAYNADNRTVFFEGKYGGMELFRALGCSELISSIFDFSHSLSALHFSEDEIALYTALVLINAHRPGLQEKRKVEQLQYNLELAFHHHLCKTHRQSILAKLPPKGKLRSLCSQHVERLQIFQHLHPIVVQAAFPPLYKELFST

| Molecule | IC50 |
| --- | --- |
| CC(C)c1nn(-c2ccccc2)cc1C1c2nnnn2CCN1Cc1ccn[nH]1 (stereo not drawn) [Compound 153, 8-(3-Isopropyl-1-phenyl-1H-pyrazol-4-yl)-7-(2H-pyrazol-3-ylmethyl)-5,6,7,8-tetrahydro-tetrazolo[1,5-a]pyrazine] | 9.9 to 40 µM |
| Brc1cccc(CN2CCn3nnnc3C2c2cccc(Br)c2)c1 (stereo not drawn) [Compound 6, 7-(3-Bromo-benzyl)-8-(3-bromo-phenyl)-5,6,7,8-tetrahydro-tetrazolo[1,5-a]pyrazine] | 9.9 to 40 µM |
| COc1ccc(OC)c(C2c3nnnn3CCN2Cc2cccc(F)c2F)c1 (stereo not drawn) [Compound 151, 7-(2,3-Difluoro-benzyl)-8-(2,5-dimethoxy-phenyl)-5,6,7,8-tetrahydro-tetrazolo[1,5-a]pyrazine] | 9.9 to 40 µM |
| CC(C)c1nn(-c2ccccc2)cc1CN1CCn2nnnc2C1c1cn(-c2ccccc2)nc1C(C)C (stereo not drawn) [Compound 62, 8-(3-Isopropyl-1-phenyl-1H-pyrazol-4-yl)-7-(3-isopropyl-1-phenyl-1H-pyrazol-4-ylmethyl)-5,6,7,8-tetrahydro-tetrazolo[1,5-a]pyrazine] | 9.9 to 40 µM |
| COc1ccc(C2c3nnnn3CCN2Cc2cn(-c3ccccc3)nc2C(C)C)cc1 (stereo not drawn) [Compound 5, 7-(3-Isopropyl-1-phenyl-1H-pyrazol-4-ylmethyl)-8-(4-methoxy-phenyl)-5,6,7,8-tetrahydro-tetrazolo[1,5-a]pyrazine] | 9.9 to 40 µM |
| CN(C)c1ccc(C2c3nnnn3CCN2CC2CCCCC2)cc1 (stereo not drawn) [Compound 19, [4-(7-Cyclohexylmethyl-5,6,7,8-tetrahydro-tetrazolo[1,5-a]pyrazin-8-yl)-phenyl]-dimethyl-amine] | 9.9 to 40 µM |
| Fc1ccc(F)c(C2c3nnnn3CCN2Cc2cccc(F)c2F)c1 (stereo not drawn) [Compound 35, 7-(2,3-Difluoro-benzyl)-8-(2,5-difluoro-phenyl)-5,6,7,8-tetrahydro-tetrazolo[1,5-a]pyrazine] | 9.9 to 40 µM |
| CN(C)c1ccc(C2c3nnnn3CCN2Cc2cc(F)ccc2F)cc1 (stereo not drawn) [Compound 16, {4-[7-(2,5-Difluoro-benzyl)-5,6,7,8-tetrahydro-tetrazolo[1,5-a]pyrazin-8-yl]-phenyl}-dimethyl-amine] | 9.9 to 40 µM |
| Fc1ccc(F)c(CN2CCn3nnnc3C2c2cccc(F)c2F)c1 (stereo not drawn) [Compound 74, 7-(2,5-Difluoro-benzyl)-8-(2,3-difluoro-phenyl)-5,6,7,8-tetrahydro-tetrazolo[1,5-a]pyrazine] | 9.9 to 40 µM |
| CCOc1ccc(C2c3nnnn3CCN2Cc2cn(-c3ccccc3)nc2C(C)C)cc1 (stereo not drawn) [Compound 43, 8-(4-Ethoxy-phenyl)-7-(3-isopropyl-1-phenyl-1H-pyrazol-4-ylmethyl)-5,6,7,8-tetrahydro-tetrazolo[1,5-a]pyrazine] | 9.9 to 40 µM |
| CCOc1ccc(C2c3nnnn3CCN2CC2CCCCC2)cc1 (stereo not drawn) [Compound 44, 7-Cyclohexylmethyl-8-(4-ethoxy-phenyl)-5,6,7,8-tetrahydro-tetrazolo[1,5-a]pyrazine] | 9.9 to 40 µM |
| COc1ccc(CN2CCn3nnnc3C2c2ccccc2F)cc1 (stereo not drawn) [Compound 22, 8-(2-Fluoro-phenyl)-7-(4-methoxy-benzyl)-5,6,7,8-tetrahydro-tetrazolo[1,5-a]pyrazine] | 9.9 to 40 µM |
| CCOc1ccc(CN2CCn3nnnc3C2C2CCCCC2)cc1 (stereo not drawn) [Compound 67, 8-Cyclohexyl-7-(4-ethoxy-benzyl)-5,6,7,8-tetrahydro-tetrazolo[1,5-a]pyrazine] | 9.9 to 40 µM |
| Cc1cccc(CN2CCn3nnnc3C2c2ccc(F)cc2)c1 (single isomer, unassigned) [Compound 93-b, 8-(4-Fluoro-phenyl)-7-(3-methyl-benzyl)-5,6,7,8-tetrahydro-tetrazolo[1,5-a]pyrazine] | 9.9 to 40 µM |
| COc1ccc(OC)c(CN2CCn3nnnc3C2c2ccc(OC(C)C)cc2)c1 (stereo not drawn) [Compound 1, 7-(2,5-Dimethoxy-benzyl)-8-(4-isopropoxy-phenyl)-5,6,7,8-tetrahydro-tetrazolo[1,5-a]pyrazine] | 9.9 to 40 µM |
| Fc1ccc(C2c3nnnn3CCN2Cc2cccc(Br)c2)cc1 (single isomer, unassigned) [Compound 96-b, 7-(3-Bromo-benzyl)-8-(4-fluoro-phenyl)-5,6,7,8-tetrahydro-tetrazolo[1,5-a]pyrazine] | 9.9 to 40 µM |
| Fc1ccc(CN2CCn3nnnc3C2c2cccc(F)c2)cc1 (single isomer, unassigned) [Compound 91-a, 7-(4-Fluoro-benzyl)-8-(3-fluoro-phenyl)-5,6,7,8-tetrahydro-tetrazolo[1,5-a]pyrazine] | 9.9 to 40 µM |
| Cc1cccc(CN2CCn3nnnc3C2c2cn(-c3ccccc3)nc2C(C)C)c1 (stereo not drawn) [Compound 57, 8-(3-Isopropyl-1-phenyl-1H-pyrazol-4-yl)-7-(3-methyl-benzyl)-5,6,7,8-tetrahydro-tetrazolo[1,5-a]pyrazine] | 9.9 to 40 µM |
| CC(C)c1nn(-c2ccccc2)cc1CN1CCn2nnnc2C1c1ccc(F)cc1 (stereo not drawn) [Compound 11, 8-(4-Fluoro-phenyl)-7-(3-isopropyl-1-phenyl-1H-pyrazol-4-ylmethyl)-5,6,7,8-tetrahydro-tetrazolo[1,5-a]pyrazine] | 9.9 to 40 µM |

Next, values leading:

| IC50 | Molecule |
| --- | --- |
| 9.9 to 40 µM | CCOc1ccc(C2c3nnnn3CCN2Cc2cccc(F)c2F)cc1 (stereo not drawn) [Compound 45, 7-(2,3-Difluoro-benzyl)-8-(4-ethoxy-phenyl)-5,6,7,8-tetrahydro-tetrazolo[1,5-a]pyrazine] |
| 9.9 to 40 µM | Cc1cccc(CN2CCn3nnnc3C2c2ccncc2)c1 (stereo not drawn) [Compound 87, 7-(3-Methyl-benzyl)-8-pyridin-4-yl-5,6,7,8-tetrahydro-tetrazolo[1,5-a]pyrazine] |
| 9.9 to 40 µM | CN(C)c1ccc(C2c3nnnn3CCN2Cc2cccc(F)c2F)cc1 (stereo not drawn) [Compound 20, {4-[7-(2,3-Difluoro-benzyl)-5,6,7,8-tetrahydro-tetrazolo[1,5-a]pyrazin-8-yl]-phenyl}-dimethyl-amine] |
| 9.9 to 40 µM | C1CCC(CN2CCn3nnnc3C2C2CCCCC2)CC1 (stereo not drawn) [Compound 69, 8-Cyclohexyl-7-cyclohexylmethyl-5,6,7,8-tetrahydro-tetrazolo[1,5-a]pyrazine] |
| 9.9 to 40 µM | Cc1nn(C)c(C)c1CN1CCn2nnnc2C1c1cn(-c2ccccc2)nc1C(C)C (stereo not drawn) [Compound 157, 8-(3-Isopropyl-1-phenyl-1H-pyrazol-4-yl)-7-(1,3,5-trimethyl-1H-pyrazol-4-ylmethyl)-5,6,7,8-tetrahydro-tetrazolo[1,5-a]pyrazine] |
| 9.9 to 40 µM | O=C(c1cccc(Br)c1)N1CCn2nnnc2C1c1cccc(F)c1 (stereo not drawn) [Compound 82, (3-Bromo-phenyl)-[8-(3-fluoro-phenyl)-5,6-dihydro-8H-tetrazolo[1,5-a]pyrazin-7-yl]-methanone] |
| 9.9 to 40 µM | 7-Benzyl-8-(4-ethyl-phenyl-1H-pyrazol-4-yl)-5,6,7,8-tetrahydro-tetrazolo[1,5-a]pyrazine [Compound 152] |
| 9.9 to 40 µM | CC(C)c1nn(-c2ccccc2)cc1CN1CCn2nnnc2C1c1ccc2c(c1)OCO2 (stereo not drawn) [Compound 29, 8-Benzo[1,3]dioxol-5-yl-7-(3-isopropyl-1-phenyl-1H-pyrazol-4-ylmethyl)-5,6,7,8-tetrahydro-tetrazolo[1,5-a]pyrazine] |
| 9.9 to 40 µM | Fc1ccc(F)c(CN2CCn3nnnc3C2c2cc(F)ccc2F)c1 (stereo not drawn) [Compound 32, 7-(2,5-Difluoro-benzyl)-8-(2,5-difluoro-phenyl)-5,6,7,8-tetrahydro-tetrazolo[1,5-a]pyrazine] |
| 9.9 to 40 µM | COc1ccc(OC)c(C2c3nnnn3CCN2Cc2cn(-c3ccccc3)nc2C(C)C)c1 (stereo not drawn) [Compound 13, 8-(2,5-Dimethoxy-phenyl)-7-(3-isopropyl-1-phenyl-1H-pyrazol-4-ylmethyl)-5,6,7,8-tetrahydro-tetrazolo[1,5-a]pyrazine] |
| 9.9 to 40 µM | Fc1cccc(CN2CCn3nnnc3C2c2cccc(F)c2F)c1F (stereo not drawn) [Compound 79, 7-(2,3-Difluoro-benzyl)-8-(2,3-difluoro-phenyl)-5,6,7,8-tetrahydro-tetrazolo[1,5-a]pyrazine] |
| 9.9 to 40 µM | Cc1cccc(CN2CCn3nnnc3C2c2ccccn2)c1 (stereo not drawn) [Compound 86, 7-(3-Methyl-benzyl)-8-pyridin-2-yl-5,6,7,8-tetrahydro-tetrazolo[1,5-a]pyrazine] |
| 9.9 to 40 µM | CC(C)Oc1ccc(C2c3nnnn3CCN2CC2CCCCC2)cc1 (stereo not drawn) [Compound 3, 7-Cyclohexylmethyl-8-(4-isopropoxy-phenyl)-5,6,7,8-tetra hydro-tetrazolo[1,5-a]pyrazine] |
| 9.9 to 40 µM | Cn1ccc(CN2CCn3nnnc3C2c2ccc(F)cc2)n1 (stereo not drawn) [Compound 85, 8-(4-Fluoro-phenyl)-7-(1-methyl-1H-pyrazol-3-ylmethyl)-5,6,7,8-tetrahydro-tetrazolo[1,5-a]pyrazine] |
| 9.9 to 40 µM | CC(C)Oc1ccc(CN2CCn3nnnc3C2C2CCCCC2)cc1 (stereo not drawn) [Compound 64, 8-Cyclohexyl-7-(4-isopropoxy-benzyl)-5,6,7,8-tetrahydro-tetrazolo[1,5-a]pyrazine] |
| 9.9 to 40 µM | CCn1cc(CN2CCn3nnnc3C2c2cn(-c3ccccc3)nc2C(C)C)cn1 (stereo not drawn) [Compound 155, 7-(1-Ethyl-1H-pyrazol-4-ylmethyl)-8-(3-isopropyl-1-phenyl-1H-pyrazol-4-yl)-5,6,7,8-tetrahydro-tetrazolo[1,5-a]pyrazine] |
| 9.9 to 40 µM | Brc1cccc(C2c3nnnn3CCN2CC2CCCCC2)c1 (stereo not drawn) [Compound 9, 8-(3-Bromo-phenyl)-7-cyclohexylmethyl-5,6,7,8-tetrahydro-tetrazolo[1,5-a]pyrazine] |

From US9688684B2, “Substituted tetrazolo[1,5-a]pyrazines as ROR-gamma inhibitors” (Merck Patent GmbH, priority 2013, dated 2017)
